# Measurements: US20240092756A1, “METHODS AND COMPOSITION FOR KRAS MODIFICATIONS” (2692372 ONTARIO, INC., priority 2020, published 2024)
# Tests used:
# [1] = target: KRAS G12C Lite (SEQ ID NO:3) (Homo sapiens, UniProt P01116, C118S/C51S/C80S/G12C/S136P/S39C); assay: Intact mass analysis (LC-MS) of covalent modification, KRAS G12C Lite; assay type: binding; set-up: key to KRAS Lite Modification: a: KRAS Lite modified; settings: for KRAS Lite Modification: intact mass spectrometry, covalent modification of KRAS G12C Lite; for covalent adduct mass, His-tagged KRAS G12C Lite: modification by one molecule of compound
# Protocol: (§1) The covalent modification of the proteins with the compounds were evaluated using intact mass analysis by liquid chromatography-mass spectrometry instrument (LC-MS/MS).
# (§2) The reaction solution (20 μL) was prepared in 96-well plate and contained the protein (2 μM), the compound (100 μM), HEPES buffer (20 mM, pH 8), 2% DMSO, 2% glycerol, and 150 mM NaCl. The reaction was allowed to proceed for 24 h at 25° C. The reaction solution (1 μL) was injected into the LC/MS/MS without any further sample preparation.
# (§3) The LC-MS/MS instrument comprises of a Waters G2-XS quadrupole-time of flight (QTof) mass spectrometer and a Waters Acuity I-class Ultra-High Performance Liquid Chromatography (UPLC) system. The I-class UPLC system includes a binary solvent manager (BSM), and an Acquity sample manager (SM). The mobile phase consisted of: A) 0.1% (v/v) formic acid in MilliQ water; B) 0.1% (v/v) formic acid acetonitrile. Gradients were run over 5 min and proceeded as follows: A:B, 85:15, 0.0-0.7 min, 85:15→15:85, 0.7-1.5 min, 10:90, 1.5-4 min, 10:90→85:15, 4-4.5 min, 85:15, 4.5-5 min. The analytical column was a Waters BEH C4 column 1.7 μm (50×1 mm) column with pore sizes of 300 Å. The TOF MS data was collected in positive ion mode (m/z of 400-2000 Da) using MassLynx software (Waters).
# (§4) The spectral deconvolution was performed using UNIFI software (Waters). The added mass of the protein upon covalent modification to cysteine residues were specified. Multiple modification of up to 8 cysteine was allowed. All the adducts with signal intensities of <2% of the base peak were ignored. The % modification was calculated as the adduct signal intensity over the total intensities of the protein peaks and the adducts.
# [2] = target: T1, KRAS G12C (SEQ ID NO:1 or SEQ ID NO:2) (Homo sapiens, UniProt P01116, G12C); assay: Intact mass analysis (LC-MS) of covalent modification, KRAS G12C; assay type: binding; set-up: key to KRAS G12C Modification: b: KRAS G12C modified; settings: for KRAS G12C Modification: intact mass spectrometry, covalent modification of KRAS G12C FL; for covalent adduct mass, His-tagged KRAS G12C: modification by one molecule of compound
# T1 construct: purchased
# Protocol: as §1, §2, §3, §4
# [3] = tested on: phospho-ERK1/2 in MIA PaCa-2 cells (express KRAS G12C); assay: ERK1/2 phosphorylation in MIA PaCa-2 cells; assay type: cell-based, human; set-up: key: X: KRAS G12C bound and modulated in cells
# Protocol: MIA PaCa-2 cells were cultured in Dulbecco's Modified Eagle's Medium (Wisent) supplemented with 10% FBS, 2.5% horse serum, and 1% penicillin/streptomycin. Cells were seeded in 6-well plates at 500,000 cells/well and incubated at 37° C., 5% CO2 for 16 hours. Cells were treated with the indicated concentrations of compound or DMSO alone and incubated at 37° C., 5% CO2 for 6 or 24 hours. Conditioned media was discarded, and adherent cells were washed with PBS before they were scraped. Cell suspensions were centrifugated at 2,000 RPM for 5 minutes at 4° C. and supernatants were discarded. Cell pellets were resuspended with 1×RIPA buffer (Millipore) and incubated on ice for 15 minutes. Protein lysates were extracted by centrifugating at 20,000 RPM for 20 minutes at 4° C. Proteins were separated and total KRas protein levels were quantified by Simple Western Immunoassay (ProteinSimple) using the 2-40 kDa Separation Module for Jess according to the manufacturer's protocol, using a protein concentration of 0.5 μg/μl and antibodies targeting KRas (clone #4F3, Sigma) and GAPDH (clone #14C10, Cell Signaling) diluted to 1:10 and 1:1600, respectively, where the latter was used as a loading control. A 3:1 ratio of rabbit to mouse HRP-conjugated secondary antibodies was used for detection. KRas protein levels were quantified relative to GAPDH loading levels and subsequently normalized to the DMSO control. Phosphorylated ERK1/2 levels were quantified by Simple Western Immunoassay (ProteinSimple) using the Protein Normalization Assay Module for Jess according to the manufacturer's protocol using a protein concentration of 0.5 μg/μl and an antibody targeting phosphor-ERK1/2 (clone #D13.14.4E, Cell Signalling) diluted to 1:10. Phosphorylated ERK1/2 levels were normalized to the Jess Protein Normalization Reagent loading control and subsequently to the DMSO control.
# MIA PaCa-2 cells were cultured in Dulbecco's Modified Eagle's Medium (Wisent) supplemented with 10% FBS, 2.5% horse serum, and 1% penicillin/streptomycin. Cells were seeded in 96-well plates at a density of 25,000 cells/well and incubated at 37° C., 5% CO2 for 24 hours. The next day, cells were starved in cell culture media containing 1% FBS only at 37° C., 5% CO2 for 16 hours. Following starvation, serially-diluted compounds or DMSO alone were added to cells and incubated at 37° C., 5% CO2 for 1 or 3 hours. Prior to cell lysis, 25 ng/ml human epidermal growth factor (hEGF) (Sigma) was added to the cells and incubated at 37° C., 5% CO2 for 10 minutes. Conditioned media was discarded, and adherent cells lysed and basal ERK1/2 phosphorylation levels were measured using the Phospho-ERK (Thr202/Tyr204) Cellular HTRF kit (Perkin Elmer) according to the manufacturer's protocol. The fluorescent signal of the acceptor antibody at a wavelength of 665 nm was normalized to that of the donor antibody at 620 nm. HTRF ratios were plotted and relative IC50 values were obtained using Prism (GraphPad).
# [4] = target: KRAS G12C (Homo sapiens, UniProt P01116, G12C); assay: SOS1-catalyzed KRAS coupled nucleotide exchange assay (Alpha technology); assay type: biochemical; set-up: His; key: A: KRAS G12C bound and modulated; settings: inhibition of SOS1 mediated KRAS nucleotide exchange
# Protocol: Method I: The inhibition of the SOS1-catalyzed nucleotide exchange activity of KRAS (e.g., KRAS G12C/C118A) was measured using Alpha (Amplified Luminescent Proximity Homogeneous Assay) technology. 20 nM GDP-bound human KRAS (G12C/C118A) protein was incubated with two-fold serially-diluted test compound or DMSO for 5 minutes at ambient temperature in reaction buffer (25 mM HEPES, pH 7.4; 10 mM MgCl2; 0.01% Triton X-100). For all subsequent steps, DTT was added to the reaction buffer at a final concentration of 1 mM. Next, GTP and SOS-1 were added in DTT-reaction buffer at final concentrations of 1.25 mM or 500 nM, respectively, and incubated at RT for 30 minutes. Finally, c-RAF RBD (50 nM final), Alpha glutathione donor beads (PerkinElmer; 20 μg/mL final), and AlphaLISAnickel chelate acceptor beads (PerkinElmer; 20 μg/mL final), all diluted in DTT-reaction buffer, were added. The reaction mixture was incubated at RT for 5 min, and then the plates were read on an EnVision® Multilabel Reader using the AlphaScreen protocol. Luminescence signal was measured at 570 nm following a 180 ms excitation at 680 nm. Signal intensity corresponded with the association of c-RAF RBD with GTP-bound KRAS G12C/C118A and was normalized to DMSO control.
# Method II: Inhibition of the SOS1-catalyzed nucleotide exchange activity of KRAS^G12C was measured using Alpha technology (PerkinElmer). 50 nM GDP-bound human KRAS^G12C protein was incubated with serially-diluted compound or DMSO for 2 hrs at RT in RBD-RAS binding buffer (BPSBioscience). 1 mM GTP and 500 nM SOS-1 were added to the reaction mixture and incubated at RT for 30 min. GST-tagged RBD-cRAF was then added to the reaction mixture at a final concentration of 2.5 nM and incubated at RT for 30 min. Finally, Alpha Glutathione acceptor beads and Nickel chelate donor beads (PerkinElmer) were diluted to 1:500 and 1:250, respectively, and added to the reaction mixture. The final reaction was incubated at RT for 30 min. Plates were read on a TECAN SPARK® Multiplate Reader. The luminescence signal was measured at 615 nm following excitation at 680 nm. Signal intensity was normalized to DMSO control.
compound,measurement,setting,value
"Cc1cccc(C)c1-c1ccc2cc(CNS(=O)(=O)c3c(F)c(F)c(F)c(F)c3F)cnc2c1 [Compound 19A, N-[[7-(2,6-dimethylphenyl)-3-quinolyl]methyl]-2,3,4,5,6-pentafluoro-benzenesulfonamide]",KRAS Lite Modification,[1],a
same,KRAS G12C Modification,[2],b
same,"pERK - MIA PaCa-2 - (6 hours, 5 uM)",[3],X
"Cc1ccnc(C(C)C)c1-n1c(=O)nc(N2CCN(S(=O)(=O)c3c(F)c(F)c(F)c(F)c3OC(F)F)C[C@@H]2C)c2cc(F)c(-c3c(O)cccc3F)nc21 [Compound 16A, 4-((S)-4-((2-(difluoromethoxy)-3,4,5,6-tetrafluorophenyl)sulfonyl)-2-methylpiperazin-1-yl)-6-fluoro-7-(2-fluoro-6-hydroxyphenyl)-1-(2-isopropyl-4-methylpyridin-3-yl) pyrido[2,3-d]pyrimidin-2(1H)-one]",KRAS Lite Modification,[1],a
same,KRAS G12C Modification,[2],b
same,KRAS-SOS1 Nucleotide Exchange,[4],A
"Cc1ccnc(C(C)C)c1-n1c(=O)nc(N2CCN(S(=O)(=O)c3c(F)c(F)c(F)c(F)c3OCF)C[C@@H]2C)c2cc(F)c(-c3c(O)cccc3F)nc21 [Compound 7A, 6-fluoro-7-(2-fluoro-6-hydroxyphenyl)-1-(2-isopropyl-4-methylpyridin-3-yl)-4-((S)-2-methyl-4-((2,3,4,5-tetrafluoro-6-(fluoromethoxy)phenyl)sulfonyl)piperazin-1-yl)pyrido[2,3-d]pyrimidin-2(1H)-one]",KRAS Lite Modification,[1],a
same,"covalent adduct mass, His-tagged KRAS G12C Lite",[1],"22,209 Da"
same,KRAS G12C Modification,[2],b
same,"covalent adduct mass, His-tagged KRAS G12C",[2],"22,100 Da"
same,"pERK - MIA PaCa-2 - (6 hours, 5 uM)",[3],X
same,KRAS-SOS1 Nucleotide Exchange,[4],A
"COc1c(F)c(F)c(F)c(F)c1S(=O)(=O)N1CCN(c2nc(=O)n(-c3c(C)ccnc3C(C)C)c3nc(-c4c(O)cccc4F)c(F)cc23)[C@@H](C)C1 [Compound 5A, 6-fluoro-7-(2-fluoro-6-hydroxyphenyl)-1-(2-isopropyl-4-methylpyridin-3-yl)-4-((S)-2-methyl-4-((2,3,4,5-tetrafluoro-6-methoxyphenyl)sulfonyl)piperazin-1-yl)pyrido[2,3-d]pyrimidin-2(1H)-one]",KRAS G12C Modification,[2],b
same,"pERK - MIA PaCa-2 - (6 hours, 5 uM)",[3],X
same,KRAS-SOS1 Nucleotide Exchange,[4],A
"Cc1ccnc(C(C)C)c1-n1c(=O)nc(N2CCN(S(=O)(=O)c3c(F)c(F)c(F)c(F)c3F)C[C@@H]2C)c2cc(F)c(Cl)nc21 [Compound 2A, 7-chloro-6-fluoro-1-(2-isopropyl-4-methylpyridin-3-yl)-4-((S)-2-methyl-4-((perfluorophenyl)sulfonyl)piperazin-1-yl)pyrido[2,3-d]pyrimidin-2(1H)-one]",KRAS Lite Modification,[1],a
same,KRAS G12C Modification,[2],b
same,KRAS-SOS1 Nucleotide Exchange,[4],A
"Cc1ccnc(C(C)C)c1-n1c(=O)nc(N2CCN(S(=O)(=O)c3c(F)c(F)c(F)c(F)c3F)C[C@@H]2C)c2cc(F)c(-c3c(O)cccc3F)nc21 [Compound 1A, 6-fluoro-7-(2-fluoro-6-hydroxyphenyl)-1-(2-isopropyl-4-methylpyridin-3-yl)-4-((S)-2-methyl-4-((perfluorophenyl)sulfonyl)piperazin-1-yl)pyrido[2,3-d]pyrimidin-2(1H)-one]",KRAS Lite Modification,[1],a
same,"covalent adduct mass, His-tagged KRAS G12C Lite",[1],"22,179 Da"
same,KRAS G12C Modification,[2],b
same,"covalent adduct mass, His-tagged KRAS G12C",[2],"22,070 Da"
same,"pERK - MIA PaCa-2 - (6 hours, 5 uM)",[3],X
same,KRAS-SOS1 Nucleotide Exchange,[4],A
"Cc1ccnc(C(C)C)c1-n1c(=O)nc(N2CCN(S(=O)(=O)c3c(F)c(F)c(F)c(F)c3OC(F)F)C[C@@H]2C)c2cc(F)c(-c3c(O)cccc3F)nc21 (single isomer, unassigned) [Compound 18A]",KRAS Lite Modification,[1],a
same,KRAS G12C Modification,[2],b
same,"pERK - MIA PaCa-2 - (6 hours, 5 uM)",[3],X
same,KRAS-SOS1 Nucleotide Exchange,[4],A
